Measurements taken from US8409649B2, “Off-note blocking sensory organic compounds” (Givaudan S.A., priority 2007, dated 2013).
Like-named read-outs stand apart in the source and are kept apart here.

How the values were obtained:
[1] = target: T1, human TAS2R44 bitter taste receptor (Homo sapiens, UniProt P59538, L162M); test: TAS2R44 bitter taste receptor assay for IC50 determination (Fluo-4 calcium assay); type: cell-based
T1 construct: The TAS2R44 construct contains RSS tag, TAS2R44, and the HSV tag which are fused in frame; expressed in transfected cells; host or cells: HEK293T/Galpha16-gustducin44 cells, stably transfected with pcDNA3.1Zeo-TAS2R44
T1 sequence (P59538 with tags, fused parts or gaps L162M): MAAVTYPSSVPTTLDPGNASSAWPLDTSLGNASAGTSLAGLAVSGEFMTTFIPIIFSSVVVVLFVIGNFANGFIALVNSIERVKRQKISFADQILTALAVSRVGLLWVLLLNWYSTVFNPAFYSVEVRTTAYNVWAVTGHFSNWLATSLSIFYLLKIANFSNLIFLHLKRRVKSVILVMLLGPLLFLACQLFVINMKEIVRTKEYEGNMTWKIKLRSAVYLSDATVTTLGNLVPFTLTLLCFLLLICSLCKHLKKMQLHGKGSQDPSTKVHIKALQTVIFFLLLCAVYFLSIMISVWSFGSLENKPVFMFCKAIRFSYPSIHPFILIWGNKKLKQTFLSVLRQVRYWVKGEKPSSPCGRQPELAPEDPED
Procedure: A receptor screen with concentration-response analysis was performed and from results inhibitory concentration (IC) IC50 values can be calculated by nonlinear regression using the function f(x)=(a−d)/(1+(x/C)^nh)+d; with a=minimum signal, d=maximum signal, nh=hill coefficient, C=IC50. and x=concentration of antagonist.
IC50 is the molar concentration of an antagonist which produces 50% of the maximum possible inhibitory response for that antagonist.
The full length gene of human TAS2R44 was amplified by polymerase chain reaction (PCR) using gene-specific primers that span the entire coding region as described in WO 2004/029087.
The TAS2R44 cDNA was subcloned into an expression cassette based on either of the following plasmids/expression vectors: pcDNA3.1Zeo (Invitrogen). These vectors contain within their multiple cloning sites the nucleotide sequence coding for the first 45 amino acids of the rat somatostatin receptor subtype 3 (RSS tag) to facilitate cell surface targeting of the transgene (SEQ ID #4) and the nucleotide sequence coding for the herpes simplex virus (HSV) glycoprotein D epitope (HSV epitope in aminoterminal to carboxyterminal direction, HSV tag). (SEQ ID #3) for facilitating immunocytochemical detection.
The TAS2R44 construct contains RSS tag, TAS2R44, and the HSV tag which are fused in frame to allow translation into the receptor protein and the resulting receptor cDNA. This transfected expression vector is called pcDNA3.1Zeo-TAS2R44 (SEQ ID #1) and allows for expression of the TAS2R44 protein (SEQ ID #2).
A cell line that stably expresses the human bitter taste receptor (TAS2R44) was generated by transfecting pcDNA3.1Zeo-TAS2R44 into HEK293T/Gα16-gustducin 44 cells (both formed as described in under 1) above. The host cell line HEK-293T is commercially available from the American […] (catalog #CRL-1573).
Fluo-4 AM (Invitrogen) is a fluorescent indicator of intracellular calcium dynamics (change in concentration) and allows monitoring changes in the calcium concentration, particularly an increase in response to receptor activation occurring after agonist exposure.
At day 0, the HEK293T cell line stably expressing Gα16-gustducin44 and TAS2R44 formed as described under 2) was seeded in antibiotic-free growth medium (standard DMEM with 10% (v/v) heat-inactivated fetal bovine serum, 2 mM L-glutamine […]) into black wall/clear bottom 96-well plates, coated with poly(ethylenimine) (0.005% v/v) at a concentration of 15,000 cells per well and incubated for 48 hours in humidified atmosphere (37° C., 5% CO2).
At the time of the assay, the growth medium was discarded and the cells were further incubated in a humidified atmosphere (37° C., 5% CO2) for 1 hour with 50 μl of loading buffer consisting of 1.5 μM Fluo-4 AM and 2.5 μM probenicid (Sigma-Aldrich) in DMEM.
Afterwards, the 96-well plate was washed 5 times with 200 μl of assay buffer (130 mM NaCl, 5 mM KCl, 10 mM HEPES, 2 mM CaCl2, and 5 mM dextrose, pH 7.4) per well, using an automated plate washer (BioTek). The plate was further incubated for 30 minutes at room temperature in the dark to allow for complete de-esterification of the Fluo-4. Afterwards the plate was washed 5 times with 200 μl of assay buffer per well, and reconstituted with 180 μl of assay buffer per well.
For assay reading, the plate was placed in a Fluorometric Imaging Plate Reader (FLIPR) (FLIPR-TETRA™, Molecular Devices), and receptor activation was initiated by addition of 20 μl of a tenfold concentrated agonist stock solution (to give the desired agonist end concentration when added to the 180 microliter assay buffer volume), which was prepared in assay buffer.
Fluorescence was continuously monitored for 20 seconds to give a signal baseline (averaged to give F0) prior to agonist addition and for 120 seconds after agonist addition. […]

[2] = test system: panel of bitter sensitive individuals; test: Sensory evaluation, forced choice test in water with sucralose; type: in vivo; conditions: 13 ppm in water with sucralose 1 mM, 3 mM, 7 mM
Procedure: The bitter blocker (13 ppm) was tested in water with sucralose in concentrations of 1 mM, 3 mM, and 7 mM by a panel of bitter sensitive individuals (15) in two replications per each concentration. The samples were compared to negative controls without bitter blocker and panelists were instructed to choose the less bitter sample in a forced choice test.

[3] = agonist not stated, read-out: IC50 when tested with the TAS2R44 bitter taste receptor

For `CC1(C(=O)O)CC1CC1CC2CC2(C)C1(C)C` (stereo not shown) [1-methyl-2-((1,2,2-trimethylbicyclo[3.1.0]hexan-3-yl)methyl)cyclopropanecarboxylic acid], the IC50 [1, 3] was 0.1 to 20 µM.

Work on `CC1CCC(CC(=O)O)CC1C` (stereo not shown) [2-(3,4-dimethylcyclohexyl)acetic acid] yielded an IC50 [1, 3] of 0.1 to 20 µM.

`CC1=CCCC(C)(C)C1CCC(C)C(=O)O` (stereo not shown) [2-methyl-4-(2,6,6-trimethylcyclohex-2-enyl)butanoic acid] was tested, and the IC50 [1, 3] was 0.1 to 20 µM.

Compound `CC1CCCC(C)(C)C1CCC(=O)O` (stereo not shown) [3-(2,2,6-trimethylcyclohexyl)propanoic acid] has an IC50 [1, 3] of 0.1 to 20 µM.

`CC1=CCC(C/C=C/C(=O)O)C1(C)C` (stereo not shown) [4-(2,2,3-trimethylcyclopent-3-enyl)but-2-enoic acid] was tested, and the IC50 [1, 3] was 0.1 to 20 µM, the IC50 ([1]; sucralose (50 mM) as agonist, same range as example 4) was “within the same range” and the “effect on bitterness vs negative control without bitter blocker” value [2] was “significantly reduce bitterness”. The “panelists that chose the sample with bitter blocker as less bitter” value ([2]; forced choice, 15 individuals, two replications) was 22/30.

`CC1CCC(CCCC(=O)O)C1(C)C` (stereo not shown) [4-(2,2,3-trimethylcyclopentyl)butanoic acid] was tested, and the IC50 [1, 3] was 0.1 to 20 µM.

`CC1CCCC(C)(C)C1CCCC(=O)O` (stereo not shown) [4-(2,2,6-trimethylcyclohexyl)butanoic acid] showed an IC50 [1, 3] of 0.1 to 20 µM.
